Values joined by “and” are separate entries in the source; they are usually repeats but may differ in a detail not shown here. Equal entries are not always repeated.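 Dose response: 5 concentrations. Exposure: 48 h. Format: 96-well plates. Endpoint: linear interpolation; highest concentration if not reached. GI50 is the concentration that inhibits growth by half. The concentration for full growth arrest is given as TGI.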
How the values were obtained:
Experiment in all cases: DTP human tumour cell line panel, 48 h
TK-10 renal = system: TK-10 renal
NCI-H226 lung = system: NCI-H226 lung
COLO 205 colon = system: COLO 205 colon
BT-549 breast = system: BT-549 breast
SR leukemia = system: SR leukemia
HCT-15 colon = system: HCT-15 colon
HT29 colon = system: HT29 colon
T-47D breast = system: T-47D breast
OVCAR-3 ovarian = system: OVCAR-3 ovarian
NCI-H460 lung = system: NCI-H460 lung

Row | SMILES | GI50 (TK-10 renal) | TGI (TK-10 renal) | GI50 (NCI-H226 lung) | TGI (NCI-H226 lung) | GI50 (COLO 205 colon) [µM] | TGI (COLO 205 colon) [µM] | GI50 (BT-549 breast) | TGI (BT-549 breast) | GI50 (SR leukemia) [µM] | TGI (SR leukemia) [µM] | GI50 (HCT-15 colon) | TGI (HCT-15 colon) | GI50 (HT29 colon) | TGI (HT29 colon) | GI50 (T-47D breast) | TGI (T-47D breast) | GI50 (OVCAR-3 ovarian) | TGI (OVCAR-3 ovarian) | GI50 (NCI-H460 lung) | TGI (NCI-H460 lung)
1 | COc1ccc(C(=O)COC(=O)[C@H](C[Se][Se]C[C@H](NC(=O)c2ccc(Br)cc2F)C(=O)OCC(=O)c2ccc(OC)cc2)NC(=O)c2ccc(Br)cc2F)cc1 | 1.23 µM | 3.4 µM | 0.581 µM | 2.07 µM | 2.56 | 7.95 | 0.86 µM | 2.47 µM | 0.478 | 4.82 | 1.03 µM | 2.99 µM | 0.879 µM | 7.48 µM | 1.73 µM | 6.03 µM | 0.88 µM | 2.31 µM | 0.353 µM | 1.31 µM
2 | Cn1cc(C2=C(c3cn(C)c4c([N+](=O)[O-])cccc34)C(=O)NC2=O)c2ccccc21 | > 25 µM | > 25 µM | > 25 µM | > 25 µM | > 25 | > 25 | > 25 µM | > 25 µM | > 25 | > 25 | > 25 µM | > 25 µM | > 25 µM | > 25 µM | > 25 µM | > 25 µM | > 25 µM | > 25 µM | > 25 µM | > 25 µM
3 | Cl.Fc1c[c-]c(-c2ccccn2)c(F)c1.[Pt].c1ccc(P(c2ccccc2)C([PH+](c2ccccc2)c2ccccc2)[PH+](c2ccccc2)c2ccccc2)cc1 | 2.67 µM | 11.9 µM | 2.78 µM | 32.8 µM | 1.87 | 3.92 | 3.24 µM | 17.1 µM | 2.61 | > 100 | 6.88 µM | > 100 µM | 3.23 µM | 21.6 µM | 2.25 µM | 8.5 µM | 2.68 µM | 8.06 µM | 3.08 µM | 11.5 µM
4 | COc1ccc2c(c1)[nH]c(=O)c1c3cc(OC)ccc3cn21 | 0.374 µM | 1.79 µM | 0.262 µM | 17.4 µM | 0.0274 | 0.0923 | < 0.031 µM | 1.19 µM | < 0.0106 | 0.062 | < 0.01 µM | 0.653 µM | < 0.0143 µM | 0.28 µM | 1.03 µM | 3.24 µM | < 0.01 µM | 0.0204 µM | 0.0282 µM | 0.363 µM
5 | Clc1ccc2c(c1)N(CCCN1CCCC1)c1ccccc1S2 | 13 µM | 26 µM | 19.4 µM | 48.3 µM | 2.5 | 7.34 | 11.8 µM | 24.4 µM | 2.01 | 4.91 | 3.72 µM | 13.5 µM | 3.71 µM | 12.9 µM | 12.4 µM | 28.5 µM | 10.4 µM | 22.9 µM | 15.2 µM | 35.4 µM
6 | CC1(C)CCC2=C(O1)c1ccccc1C(=O)C2=O | 1.83 µM | 3.34 µM and 4.56 µM | 1.84 µM | 3.77 µM and 2.89 µM |  | 3.63 | 1.51 µM | 2.92 µM and 1.74 µM | 3.99 | > 100 | 0.739 µM and 0.537 µM | 2.33 µM and 1.79 µM | 3.43 µM | > 100 µM | 1.49 µM | 4.4 µM and 1.87 µM | 1.31 µM | 2.9 µM and 0.698 µM | 1.88 µM and 0.323 µM | 3.69 µM and 1.15 µM
7 | C[C@]12CC[C@H](O)C[C@H]1CC[C@@H]1[C@@H]2CC[C@]2(C)[C@@H](C3=CC(=O)OC3)[C@@H](O)C[C@]12O |  | 1.99 µM |  | 9.8 µM |  | 7.18 |  | 7.32 µM |  | 3.63 |  | 7.21 µM |  | 11 µM |  | > 40.7 µM |  | 1.73 µM |  | 1.72 µM
8 | CCCCCCCCCCCCCC1=NCCN1CCO | 4.75 µM | 12.7 µM | 17.5 µM | 41.2 µM | 2.11 | 3.97 | 13.4 µM | 31.8 µM | 3.75 | > 100 | 1.92 µM | 4.77 µM | 2.81 µM | > 28.6 µM | 4.57 µM | 13.1 µM | 2.73 µM | 6.48 µM | 2.13 µM | 4.63 µM
9 | c1cc2[nH]ncc2cc1-c1nc2ccc3[nH]ncc3c2c2c1CCCC2 | 0.913 µM | 21.8 µM | 1.73 µM | 7.79 µM | 1.36 | 8.36 | 1 µM | 3.78 µM | 0.338 |  | 0.54 µM | 11.2 µM | 1.59 µM | 13.1 µM | 2.02 µM | 12.3 µM | 1.78 µM | 7.58 µM | 1.2 µM | 10.5 µM
10 | CCOC(=O)n1cc(C2=C(c3cn(C)c4ccccc34)COC2=O)c2ccccc21 | 10 µM | 31 µM | 0.452 µM | > 39 µM | 0.241 | 2.41 | 0.145 µM | 11.1 µM | 0.0449 | 16.4 | 0.0382 µM | > 63 µM | 0.0464 µM |  | 0.338 µM | > 100 µM | 0.0391 µM | 0.277 µM | 0.371 µM | > 100 µM
11 | Cc1ccccc1-n1ncc(C(=O)c2ccccc2)c1N | > 25 µM | > 25 µM | > 25 µM | > 25 µM | > 25 | > 25 | > 25 µM | > 25 µM | > 25 | > 25 | > 25 µM | > 25 µM | > 25 µM | > 25 µM | > 25 µM | > 25 µM | > 25 µM | > 25 µM | > 25 µM | > 25 µM
12 | C=CC(=O)NCc1cccc(Nc2ncc(Br)c(NCCCNC(=O)C3CCC3)n2)c1 | 0.41 µM and 1.86 µM | 4.21 µM and 11.6 µM | 0.999 µM and 0.448 µM | 7.85 µM and 11.8 µM | 0.403 | 2.01 | 0.698 µM and 0.515 µM | 2.55 µM and 2.42 µM | 0.394 | 12.5 | 2.27 µM and 2.65 µM | 12.5 µM and 13.2 µM | 1.67 µM and 0.27 µM | 12.5 µM and 4.83 µM | 4.86 µM and 5.07 µM | 12.5 µM and 22.5 µM | 1.57 µM and 1.18 µM | 4.78 µM and 8.16 µM | 0.941 µM and 1.27 µM | 4.7 µM and 5.55 µM
13 | Nc1nc(OCc2cc(Br)cs2)c2[nH]cnc2n1 | 10.2 µM | 62.9 µM | 24.6 µM | > 100 µM | 34 | > 100 | 15.7 µM | 63.9 µM | 29.5 | > 100 | 18.4 µM | > 100 µM | 28.9 µM | > 100 µM | 17.5 µM | 87.5 µM | 28.1 µM | > 100 µM | 25 µM | > 100 µM
